Legend:
[1] = target: full length human WEE1 kinase (Homo sapiens, UniProt P30291); assay: ELISA based assay: WEE1 phosphorylation of biotinylated H2B peptide spanning Tyr37; type: biochemical; parameters: A full length human WEE1 kinase that was enzymatically active was purified from insect cell; ELISA assay % Inhibition: concentration or dose not given beside the values; settings: Table 3; No peptide = 100, No inhibitor = 0
Excerpt: Designing of a Novel inhibitor Screening Platform: […] A full length human WEE1 kinase that was enzymatically active was purified from insect cell. […] NCI diversity set compound library ( 1600 compounds) was used for the screening.

[2] = test system: LNCaP cells; assay: Cell cycle analysis by propidium iodide staining; type: cell-based, human; settings: 16 hours
Procedure: To further validate this observation, LNCaP cells were treated with WEIN-159 and 172 for 16 hours and cell cycle analysis was performed by propidium iodide staining.

[3] = test system: WEE1; assay: Endogenous WEE1 auto-phosphorylation in cells (WEE1 IP, pTyr immunoblot); type: cell-based, human; settings: LNCaP and melanoma cell line B16, 10 μM, 24 hours (FIGS. 7B and C)
Procedure: The reaction mix was then subjected to immunoprecipitated with WEE1 antibodies, followed by immunoblotting with pTyr antibodies (top panel). As a control, purified ACK1 protein was incubated in the reaction buffer containing ATP, in presence of 100 nM epigenetic inhibitors. The reaction mix was then subjected to immunoprecipitated with ACK1 antibodies, followed by immunoblotting with pTyr antibodies (bottom panel). […] In addition, the lysates were also subjected to immunoblotting with actin antibodies (bottom panel). […] In addition, the lysates were also subjected to immunoblotting with actin antibodies (bottom panel). […] In addition, the lysates were also subjected to immunoblotting with actin antibodies (bottom panel). To determine direct binding of these compounds causing WEE1 inhibition, a full length WEE1 kinase protein was incubated with the compounds. […] These inhibitors were further validated by assessing their ability to suppress endogenous WEEE activity; LNCaP cells were treated with 10 μM of these compounds overnight.

[4] = target: WEE1 (Homo sapiens, UniProt P30291); assay: Pull-down assay with biotinylated inhibitor on streptavidin beads; type: binding; settings: LNCaP cell lysates, WEE1 immunoblot (FIG. 11A)
Procedure: (§1) FIGS. 11A-11E show direct interaction between inhibitor and WEE1 kinase. […] FIGS. 11C-11E show biotinylated WEIN-159 and WEIN-172 immobilized onto streptavidin beads were incubated with lysates prepared from HEK293T cells transfected with MYC-tagged WEE1 deletion constructs, followed by immunoblotting with MYC antibodies.
(§2) Inhibitory activity of WEIN-159 and WEIN-172 was further validated by examining its direct-binding to WEE1 protein, using a pull-down assay. WEIN-159 and WEIN-172 were attached to biotin molecule (FIG. 10) and then immobilized onto streptavidin beads. Beads were incubated with cell lysate, washed and electrophoresed followed by immunoblottng with WEE1 antibodies.
(§3) To further identify region within WEE1 that may be involved in binding to inhibitor, a deletion strategy was employed wherein three deletions, A-WEE1, B-WEE1 and C-Wee1 were generated which were Myc-tagged (FIG. 11B). Constructs were transfected in HEK293T cells and lysates were incubated with biotin beads with bound WEIN-159 and 172.

[5] = test system: WEE1 protein; assay: as above; type: binding; settings: lysates of transfected HEK293T cells (FIGS. 11C and D)
Procedure: as §1, §2, §3

[6] = test system: global histone H3K18, H3K12 and H3K9 and H4K5 acetylation; assay: Global histone acetylation after treatment; type: cell-based
Excerpt: FIGS. 15A-15B show restoration of H3K18 epigenetic marks by epigenetic inhibitor of WEE1 kinase.
FIGS. 16A-16D show restoration of H4K5 and H3K12 epigenetic marks by epigenetic inhibitor of WEE1 kinase.
Global upregulation of histone H3K18 and H3K12 acetylation upon WEIN-159 treatment: To further examine the effect of WEE1 inhibition, global histone H3K18, H3K12 and H3K9 and H4K5 acetylation was examined following WEIN-159 and WEIN-172 treatment. […] In contrast, H3K9 acetylation levels were not affected.

[7] = test system: Cdc2 Tyr15-phosphorylation (pY15-Cdc2); assay: WEE1 cell cycle inhibitory activity in cells: pY15-Cdc2 immunoblot; type: cell-based, human
Excerpt: FIGS. 2A-2B show identification of 3 distinct types of inhibitors. […] In addition, the lysates were also subjected to by immunoblotting with […]-Cdc2 or actin antibodies (middle and bottom panels). […] The number vehicle treated cells were used as control and percent of surviving cells were plotted. […] In addition, the lysates were also subjected to immunoblotting with actin antibodies (bottom panel). Identification of compounds with WEE1 epigenetic inhibitory role: 14 'hits' that were identified in the screen are shown in FIG. 1. These compounds were further tested for their ability to inhibit WEE1 epigenetic activity. Prostate cancer derived LNCaP cells were treated with 3 uM of compounds for 48 hours. […] Lysates were also assessed for WEE1 cell cycle inhibitory activity by determining Cdc2 Tyr15-phosphorylation ([…]-Cdc2). […] These are named as 'Cell Cycle' inhibitors. […] These compounds are the 'Epigenetic' inhibitors.

[8] = test system: global histone levels; assay: Global histone expression, qRT-PCR; type: cell-based, human; settings: LNCaP 5 or 10 uM 16 hr; LAPC4 3.5 uM 48 hr
Excerpt: FIGS. 8A-8B show inhibition of WEE1 epigenetic activity lead to increased global histone expression. […] Total RNA was isolated followed by qRT-PCR with histone H3 and actin primers. […] Total RNA was isolated followed by qRT-PCR with histone H3 and actin primers.
WEIN-159 and WEIN-172 were further assessed by treatment of LNCaP and melanoma cell line B16, followed by determination of WEE1, H2B and Cdc Tyr-phopshorylation.

[9] = test system: histone H2B Tyr37-phopshorylation (pY37-H2B); assay: WEE1 epigenetic activity in cells: pY37-H2B immunoprecipitation/immunoblot; type: cell-based, human
Excerpt: FIGS. 2A-2B show identification of 3 distinct types of inhibitors. […] In addition, the lysates were also subjected to by immunoblotting with pY15-Cdc2 or actin antibodies (middle and bottom panels). […] The number vehicle treated cells were used as control and percent of surviving cells were plotted.
FIGS. 4A-4B show structures of ‘hits’ identified in WEE1 epigenetic inhibitor screen. […] The reaction mix was then subjected to immunoprecipitated with WEE1 antibodies, followed by immunoblotting with pTyr antibodies. […] In addition, the lysates were also subjected to immunoblotting with actin antibodies (bottom panel).
FIGS. 7A-7C show identification of WEIN-159 as a potent WEE1 epigenetic inhibitor. […] In addition, lysates were immunoprecipitated with pY37-H2B antibodies, followed by immunoblotting with H2B antibodies (middle panel). […] The lysates were also subjected to immunoblotting with pY15-Cdc2 antibodies and were immunoprecipitated with pY37-H2B antibodies, followed by immunoblotting with H2B antibodies (middle panels). In addition, the lysates were also subjected to immunoblotting with H2B antibodies (bottom panel). […] The lysates were also subjected to immunoblotting with pY15-Cdc2 antibodies and were immunoprecipitated with pY37-H2B antibodies, followed by immunoblotting with H2B antibodies (middle panels). In addition, the lysates were also subjected to immunoblotting with actin antibodies (bottom panel).
Identification of compounds with WEE1 epigenetic inhibitory role: 14 ‘hits’ that were identified in the screen are shown in FIG. 1. These compounds were further tested for their ability to inhibit WEE1 epigenetic activity. Prostate cancer derived LNCaP cells were treated with 3 uM of compounds for 48 hours. Cells were harvested, lysates were prepared, and WEE1 epigenetic activity was detected by determining histone H2B Tyr37-phopshorylation (pY37-H2B). Lysates were also assessed for WEE1 cell cycle inhibitory activity by determining Cdc2 Tyr15-phosphorylation (pY15-Cdc2). […] These are named as ‘Cell Cycle’ inhibitors. […] These compounds are the ‘Epigenetic’ inhibitors.

[10] = LNCaP and melanoma cell line B16, 10 μM, 24 hours (FIGS. 7B and C)
[11] = LNCaP cells, 10 μM, 24 hours (FIG. 7A)

Sequence of full length human WEE1 kinase (P30291 whole entry): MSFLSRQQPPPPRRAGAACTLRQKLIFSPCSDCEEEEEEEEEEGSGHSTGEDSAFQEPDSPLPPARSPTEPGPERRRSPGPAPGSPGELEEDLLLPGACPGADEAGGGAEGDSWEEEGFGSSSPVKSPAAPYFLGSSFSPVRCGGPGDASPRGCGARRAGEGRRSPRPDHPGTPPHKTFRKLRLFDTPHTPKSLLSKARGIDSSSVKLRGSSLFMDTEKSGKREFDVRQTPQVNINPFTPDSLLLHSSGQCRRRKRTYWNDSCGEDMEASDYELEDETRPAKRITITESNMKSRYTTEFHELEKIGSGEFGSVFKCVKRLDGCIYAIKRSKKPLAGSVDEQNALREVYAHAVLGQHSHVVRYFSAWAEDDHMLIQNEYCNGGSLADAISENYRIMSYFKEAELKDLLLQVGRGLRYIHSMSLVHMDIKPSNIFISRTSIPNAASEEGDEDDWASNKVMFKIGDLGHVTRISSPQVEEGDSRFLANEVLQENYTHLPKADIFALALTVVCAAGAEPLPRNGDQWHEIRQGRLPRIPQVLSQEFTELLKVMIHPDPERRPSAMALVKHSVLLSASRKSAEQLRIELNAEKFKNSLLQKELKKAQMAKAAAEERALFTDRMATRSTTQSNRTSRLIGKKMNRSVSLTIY
Sequence of WEE1 (Homo sapiens, UniProt P30291) (P30291 whole entry): as above

## Cl.Nc1cccc(NC(=O)c2ccc(C(=O)Nc3cccc(N)c3)s2)c1 [WEIN-172]
[1]
  ELISA assay % Inhibition: 112%
[2]
  Cell Cycle Analysis G1: 56.53
  Cell Cycle Analysis G2/M: 16.29
  Cell Cycle Analysis S: 27.18
[3]
  WEE1 Tyr-phopshorylation: significant loss of WEE1 and H2B Tyr-phopshorylation
[4]
  binding of WEE1 protein to biotinylated inhibitor on streptavidin beads: to lesser extent
[5]
  binding to MYC-tagged WEE1 deletion constructs: only full length WEE1 interacted with inhibitor
[6]
  H3K9 acetylation levels: not affected
[6]; FIG. 15
  H3K18 acetylation: significant increase in H3K18 acetylation
[6]; FIGS. 16 A and B
  H3K12 acetylation: significant increase
[6]; FIGS. 16A and C
  H4K5 acetylation: significant increase
[7]; [10]
  Cdc Tyr15-phopshorylation: remained unaffected
[7]; [11]
  Cdc Tyr-phopshorylation: unaffected
[8]
  global histone levels (real time PCR of H3 and H2B): significant increase in global histone levels
[9]; [10]
  H2B Tyr-phopshorylation: significant loss of WEE1 and H2B Tyr-phopshorylation
[9]; [11]
  H2B Tyr37-phopshorylation: almost complete loss of H2B Tyr37-phopshorylation

— patent US11987568B2, “Allosteric inhibitor of WEE1 kinase” (H. LEE MOFFITT CANCER CENTER AND RESEARCH INSTITUTE, INC., priority 2018, dated 2024)
